Assay: xn = mol fraction of the nth substance listed, in the solute-free solvent

Cc1ncc(C[n+]2csc(CCO)c2C)c(N)n1.O=[N+]([O-])[O-] + O + CO
solubility (g/100 g solution)
Conditions | x2 = 0.1 | x2 = 0.2 | x2 = 0.3 | x2 = 0.4 | x2 = 0.5 | x2 = 0.6 | x2 = 0.7 | x2 = 0.8 | x2 = 0.9
278.15 K | 0.197 | 0.323 | 0.483 | 0.678 | 0.884 | 1.03 | 1.17 | 1.18 | 1.2
283.15 K | 0.221 | 0.371 | 0.566 | 0.801 | 1.05 | 1.24 | 1.41 | 1.43 | 1.44
288.15 K | 0.273 | 0.429 | 0.66 | 0.918 | 1.24 | 1.47 | 1.67 | 1.68 | 1.7
293.15 K | 0.35 | 0.52 | 0.79 | 1.08 | 1.47 | 1.77 | 2.02 | 2.04 | 2.08
298.15 K | 0.422 | 0.636 | 0.951 | 1.34 | 1.77 | 2.19 | 2.5 | 2.54 | 2.54
303.15 K | 0.518 | 0.786 | 1.17 | 1.64 | 2.18 | 2.68 | 3.06 | 3.14 | 3.1
308.15 K | 0.657 | 0.983 | 1.46 | 1.96 | 2.64 | 3.23 | 3.75 | 3.85 | 3.77
313.15 K | 0.812 | 1.24 | 1.81 | 2.52 | 3.25 | 3.94 | 4.6 | 4.72 | 4.55

Cc1[nH]c(=O)c(C#N)cc1-c1ccncc1 + OCCO + O
solubility (g/100 g solution)
Conditions | 278.15 K | 283.15 K | 288.15 K | 293.15 K | 298.15 K | 303.15 K | 308.15 K | 313.15 K | 318.15 K | 323.15 K
x2 = 0.03125 | 0.000882 | 0.00106 | 0.00125 | 0.00147 | 0.00171 | 0.00196 | 0.00222 | 0.00252 | 0.00285 | 0.00321
x2 = 0.06767 | 0.00131 | 0.00157 | 0.00185 | 0.00216 | 0.00252 | 0.00288 | 0.00326 | 0.0037 | 0.00417 | 0.0047
x2 = 0.1107 | 0.00189 | 0.00227 | 0.00266 | 0.00311 | 0.00362 | 0.00413 | 0.00467 | 0.00529 | 0.00595 | 0.0067
x2 = 0.1622 | 0.00264 | 0.00316 | 0.0037 | 0.00432 | 0.00502 | 0.00573 | 0.00647 | 0.00732 | 0.00821 | 0.00925
x2 = 0.225 | 0.00351 | 0.0042 | 0.00493 | 0.00575 | 0.00666 | 0.0076 | 0.00858 | 0.00971 | 0.0109 | 0.0123
x2 = 0.3034 | 0.00434 | 0.00527 | 0.00628 | 0.00732 | 0.00847 | 0.00967 | 0.0109 | 0.0123 | 0.0138 | 0.0155
x2 = 0.4038 | 0.00509 | 0.00622 | 0.00737 | 0.00855 | 0.00992 | 0.0116 | 0.0131 | 0.0148 | 0.0165 | 0.0186
x2 = 0.5373 | 0.00576 | 0.00696 | 0.00818 | 0.00966 | 0.0113 | 0.0129 | 0.0147 | 0.0167 | 0.0186 | 0.0211
x2 = 0.7232 | 0.00605 | 0.0074 | 0.00868 | 0.0102 | 0.0118 | 0.0135 | 0.0153 | 0.0174 | 0.0195 | 0.0223

— the CheMixHub drug solubility set
